Consider 31 compounds from patent publication US20250381110A1, “SKIN CARE COMPOSITION AND METHOD OF USING THE SAME” (THE PROCTER & GAMBLE COMPANY, priority 2024, published 2025).

The structures appear in SMILES notation. Structures can show the parent of a compound that is named as a salt. Where two headings read alike, the source gives them in different places.

For this test, the system named is p62-dependent mitophagy. In words: Luciferase-p62 assay (Fluc-p62 clearance) in mouse embryonic fibroblasts. Format: cell-based. The procedure: To identify p62-dependent materials which increase mitophagy, a Luciferase-p62 Assay was established. This method provides an approach to measure the ability of a material to modulate p62-dependent mitophagy by using an inducible firefly luciferase-p62 (Fluc-p62) reporter cell system. In this assay, p62 levels are driven by doxycycline treatment. After levels increased, expression of Fluc-p62 is turned off by removal of doxycycline, materials are then added and assessed for how they affect clearance of Fluc-p62 protein, which is proportionate to cellular mitophagy rates (Kelly et al.). The negative control is doxycycline induced Luc-p62 in the absence of compound or bioactive material treatment and in the presence of vehicle (DMSO).
Test materials including bioactive materials were screened in mouse embryonic fibroblasts (MEFs, Harada et al.) expressing the TET-inducible p62-fluc construct as previously described (Brown et al.). […] Gibson assembly was used to insert firefly luciferase (Fluc) and p62 into the pCW57.1 backbone. Fluc, p62, and pCW57.1 were polymerase chain reaction (PCR) amplified using pfu polymerase (Life technologies) and Gibson assembly primers with 20 base pair (bp) overhangs. PCR products were separated by agarose gel electrophoreses, and fragments excised and purified before use in DNA assembly reaction with NEBuilder HiFi DNA Assembly kit (New England Biolabs). After the assembly, the reaction mix was transformed into NEB3040 Stable Competent Escherichia coli (New England Biolabs). After 24 hours growth at 31 degrees Celsius the plasmid was extracted using QIAprep Spin Miniprep kit (Qiagen). The plasmid was sequenced to confirm correct insertion of Fluc-p62. To generate MEFs stably expressing doxycycline inducible Fluc-p62, HEK293FT cells were transfected with Fluc-p62-pCW57.1 and the ViraPower Packaging Mix (Invitrogen) to produce lentivirus. MEFs were transduced with the obtained lentiviral stock following followed by selection with 1 microgram per milliliter puromycin.Fluc-p62expressing MEFs were maintained in DMEM supplemented with 10 percent fetal bovine serum (FBS), 100 units per milliliter penicillin/streptomycin, and 2 millimolar L-glutamine in a humidified atmosphere containing 5 percent carbon dioxide at 37 degrees Celsius. Cells were plated into white 96 well plates (2,000 cells per well with 100 microliters media) and allowed to settle for 24 hours. […] Subsequently, cells were treated with test materials for 48 hours in normal growth medium and analysed using ONE-Glo™+Tox Luciferase Reporter and Cell Viability Assay (Promega) by following the manufacturer's protocol.
Test compositions and control compositions were prepared as described above in the Luciferase-p62 assay (Method 3) and tested accordingly. The compounds used in this example, as examples of bioactive materials, were from the APExBIO DiscoveryProbe™ Natural Product Library Plus (Houston, TX) and evaluated at equivalent concentrations (10 μM).
Data are additionally calculated as percentage of activity relative to rapamycin, a benchmark control compound tested in the same experiment.

[1] abbreviates: Luciferase-p62 assay, mouse embryonic fibroblasts (MEFs), compounds at 10 μM.
Where [2] appears, read: percentage of Luciferase-p62 clearance relative to baseline (mean luminescence in the absence of doxycycline induction), MEFs, 10 μM.
The mark [3] stands for this setting: percentage of activity relative to rapamycin tested in the same experiment at the same concentration, MEFs, 10 μM.

For the compound `CCC[C@@H]1C[C@@H](C(=O)N[C@@H]([C@H]2O[C@H](SC)[C@H](OP(=O)(O)O)[C@@H](O)[C@H]2O)[C@H](C)Cl)N(C)C1` [Clindamycin Phosphate], the “Mean Luminescence” value under setting [1] was 526.49. In addition, the “% Activity over baseline” value under setting [2] was found to be 67.46%. Further, the “% Activity relative to Rapamycin” value under setting [3] is 121.55%.

In the case of `Clc1ccccc1C(c1ccccc1)(c1ccccc1)n1ccnc1` [Clotrimazole], the “Mean Luminescence” value under setting [1] was 623.22. The “% Activity over baseline” value under setting [2] was 61.48%. Moreover, the “% Activity relative to Rapamycin” value under setting [3] is recorded as 110.78%.

With `O=c1ccn([C@H]2C[C@H](O)[C@@H](CO)O2)c(=O)[nH]1` [Compound 2-Deoxyuridine], the “Mean Luminescence” value under setting [1] was found to be 867.92. Under setting [2], the “% Activity over baseline” value was found to be 46.36%. Also, the “% Activity relative to Rapamycin” value under setting [3] was determined as 83.53%.

On to `NC(=O)Cc1ccccc1` [Compound 2-Phenylacetamide, 2-Phenylacetamide], for which the “Mean Luminescence” value under setting [1] is 861.95. The “% Activity over baseline” value under setting [2] is reported as 46.73%. In addition, the “% Activity relative to Rapamycin” value under setting [3] turned out to be 84.20%.

For `Nc1ccc(O)cc1` [Compound 4-Aminophenol, 4-Aminophenol], the “Mean Luminescence” value under setting [1] came to 482.45. For the same compound, the “% Activity over baseline” value under setting [2] was found to be 70.18%. Also, under setting [3], the “% Activity relative to Rapamycin” value amounted to 126.45%.

Turning to `N[C@@H](Cc1c[nH]c2ccc(O)cc12)C(=O)O` [Compound 5-HTP], the “Mean Luminescence” value under setting [1] was 902.36. The “% Activity over baseline” value under setting [2] is reported as 44.23%. Besides, the “% Activity relative to Rapamycin” value under setting [3] is on record as 79.70%.

With `CC(=O)O[C@H]1C(=O)[C@@]2(C)[C@H]([C@H](OC(=O)c3ccccc3)[C@]3(O)C[C@H](OC(=O)[C@H](O)[C@@H](NC(=O)c4ccccc4)c4ccccc4)C(C)=C1C3(C)C)[C@]1(OC(C)=O)CO[C@@H]1C[C@@H]2O` [Compound 7-Epitaxol], the “Mean Luminescence” value under setting [1] is 968.61. The “% Activity over baseline” value under setting [2] is listed as 40.14%. Also, the “% Activity relative to Rapamycin” value under setting [3] is on record as 72.32%.

As for `CCCCCCCCC[C@H](O)CC(=O)CCc1ccc(O)c(OC)c1` [Compound 10-Gingerol], under setting [1], the “Mean Luminescence” value came to 520.57. The “% Activity over baseline” value under setting [2] is 67.83%. The “% Activity relative to Rapamycin” value under setting [3] amounted to 122.21%.

Regarding `O=C(O[C@@H]1O[C@@H]2COC(=O)c3cc(O)c(O)c(O)c3-c3c(cc(O)c(O)c3O)C(=O)O[C@H]([C@H]1O)[C@@H]2O)c1cc(O)c(O)c(O)c1` [Corilagin], under setting [1], the “Mean Luminescence” value was 985.42. For the same compound, under setting [2], the “% Activity over baseline” value is 39.10%. The “% Activity relative to Rapamycin” value under setting [3] came out at 70.45%.

For the compound `C[C@]12C[C@H](O)[C@H]3[C@@H](CCC4=CC(=O)CC[C@@]43C)[C@@H]1CC[C@@H]2C(=O)CO` [Corticosterone], the “Mean Luminescence” value under setting [1] is listed as 870.00. Besides, the “% Activity over baseline” value under setting [2] is 46.23%. The “% Activity relative to Rapamycin” value under setting [3] was determined as 83.30%.

For the compound `CN(CC(=O)O)C(=N)N.O` [Creatine monohydrate], under setting [1], the “Mean Luminescence” value came to 901.68. Further, the “% Activity over baseline” value under setting [2] came to 44.28%. Also, the “% Activity relative to Rapamycin” value under setting [3] is 79.77%.

With `N=c1ccn2c(n1)O[C@H]1[C@H](O)[C@@H](CO)O[C@H]12` [Cyclocytidine HCl], under setting [1], the “Mean Luminescence” value was 914.30. Moreover, the “% Activity over baseline” value under setting [2] was 43.50%. Besides, under setting [3], the “% Activity relative to Rapamycin” value is given as 78.37%.

In the case of `CC1=C2C[C@H]3[C@@H](CC=C4C[C@@H](O)CC[C@@]43C)[C@@H]2CC[C@]12O[C@@H]1C[C@H](C)CN[C@H]1[C@H]2C` [Cyclopamine], under setting [1], the “Mean Luminescence” value stood at 471.92.

Take `Nc1ccn([C@@H]2O[C@H](CO)[C@@H](O)[C@H]2O)c(=O)n1` [Cytidine]: the “Mean Luminescence” value under setting [1] turned out to be 841.40. For the same compound, the “% Activity over baseline” value under setting [2] is recorded as 48.00%. For the same compound, the “% Activity relative to Rapamycin” value under setting [3] turned out to be 86.49%.

With `N[C@H](Cc1ccccc1)C(=O)O` [D-Phenylalanine], the “Mean Luminescence” value under setting [1] is reported as 763.78. Also, under setting [2], the “% Activity over baseline” value stood at 52.80%. Also, the “% Activity relative to Rapamycin” value under setting [3] amounted to 95.13%.

As to `O=C1CC[C@H](C(=O)O)N1` [D-Pyroglutamic acid], the “Mean Luminescence” value under setting [1] was 938.93. Also, the “% Activity over baseline” value under setting [2] came out at 41.97%. Moreover, the “% Activity relative to Rapamycin” value under setting [3] was 75.63%.

Consider `CCN(CC)c1ccc(/C=N/NC(=O)c2ccc(O)cc2)cc1` [DY131], for which the “Mean Luminescence” value under setting [1] is given as 878.41. For the same compound, the “% Activity over baseline” value under setting [2] is given as 45.71%. The “% Activity relative to Rapamycin” value under setting [3] worked out at 82.36%.

With `Cc1nc(Nc2ncc(C(=O)Nc3c(C)cccc3Cl)s2)cc(N2CCN(CCO)CC2)n1` [Dasatinib Monohydrate], the “Mean Luminescence” value under setting [1] is 410.49. Also, under setting [2], the “% Activity over baseline” value turned out to be 74.63%. Also, the “% Activity relative to Rapamycin” value under setting [3] amounted to 134.47%.

Consider `Oc1ccc(OC2CCCCO2)cc1` (stereo not shown) [Deoxyarbutin], for which the “Mean Luminescence” value under setting [1] is 653.14. Also, the “% Activity over baseline” value under setting [2] is 59.64%. The “% Activity relative to Rapamycin” value under setting [3] worked out at 107.45%.

For the compound `C[C@H](CCC(=O)O)[C@H]1CC[C@H]2[C@@H]3CC[C@@H]4C[C@H](O)CC[C@]4(C)[C@H]3C[C@H](O)[C@]12C` [Deoxycholic acid sodium salt], under setting [1], the “Mean Luminescence” value is 591.12. The “% Activity over baseline” value under setting [2] stood at 63.47%. For the same compound, under setting [3], the “% Activity relative to Rapamycin” value turned out to be 114.35%.

With `CC(=O)OCC(=O)[C@@]1(O)[C@H](C)C[C@H]2[C@@H]3CCC4=CC(=O)C=C[C@]4(C)[C@@]3(F)[C@@H](O)C[C@@]21C` [Dexamethasone acetate], the “Mean Luminescence” value under setting [1] stood at 681.22. The “% Activity over baseline” value under setting [2] is reported as 57.90%. In addition, the “% Activity relative to Rapamycin” value under setting [3] is 104.32%.

Take `CN1CCN(c2cc3c(cc2F)c(=O)c(C(=O)O)cn3-c2ccc(F)cc2)CC1` [Difloxacin HCl]: the “Mean Luminescence” value under setting [1] was determined as 980.30. Further, the “% Activity over baseline” value under setting [2] worked out at 39.42%. Besides, under setting [3], the “% Activity relative to Rapamycin” value was 71.02%.

Turning to `COC(=O)/C=C/C(=O)OC` [Dimethyl Fumarate], under setting [1], the “Mean Luminescence” value is reported as 786.79. Moreover, the “% Activity over baseline” value under setting [2] was 51.38%. Besides, the “% Activity relative to Rapamycin” value under setting [3] is 92.57%.

Turning to `C[C@@H]1CC[C@@]2(OC1)O[C@H]1C[C@H]3[C@@H]4CC=C5C[C@@H](O)CC[C@]5(C)[C@H]4CC[C@]3(C)[C@H]1[C@@H]2C` [Diosgenin], the “Mean Luminescence” value under setting [1] is given as 903.89. In addition, the “% Activity over baseline” value under setting [2] is on record as 44.14%. In addition, the “% Activity relative to Rapamycin” value under setting [3] is reported as 79.53%.

Turning to `Cl.NCCc1ccc(O)c(O)c1` [Dopamine HCl], the “Mean Luminescence” value is listed as 995.96. Also, for the setting “10 µM”, the “% Activity over baseline” value was determined as 38.45% and the “% Activity relative to Rapamycin” value was found to be 69.28%.

Regarding `CCCCc1oc2ccc(NS(C)(=O)=O)cc2c1C(=O)c1ccc(OCCCN(CCCC)CCCC)cc1` [Dronedarone], the “Mean Luminescence” value under setting [1] came to 550.43. Besides, under setting [2], the “% Activity over baseline” value amounted to 65.98%. Further, under setting [3], the “% Activity relative to Rapamycin” value is given as 118.89%.

As to `Clc1ccc(COC(Cn2ccnc2)c2ccc(Cl)cc2Cl)cc1` (stereo not shown) [Econazole nitrate], the “Mean Luminescence” value under setting [1] worked out at 359.76. Under setting [2], the “% Activity over baseline” value worked out at 77.77%. Moreover, under setting [3], the “% Activity relative to Rapamycin” value came to 140.12%.

Consider `O=C1C[C@@H](c2ccc(O)c(O)c2)Oc2cc(O)cc(O)c21` [Eriodictyol], for which the “Mean Luminescence” value under setting [1] amounted to 852.50. Moreover, under setting [2], the “% Activity over baseline” value is listed as 47.31%. For the same compound, the “% Activity relative to Rapamycin” value under setting [3] is 85.25%.

On to `OC[C@@H](O)[C@@H](O)CO` [Erythritol], for which the “Mean Luminescence” value under setting [1] was 696.09. Further, the “% Activity over baseline” value under setting [2] came to 56.98%. For the same compound, under setting [3], the “% Activity relative to Rapamycin” value was determined as 102.67%.

Take `C[C@]12CC[C@@H]3c4ccc(OC(=O)c5ccccc5)cc4CC[C@H]3[C@@H]1CC[C@@H]2O` [Estradiol Benzoate]: the “Mean Luminescence” value under setting [1] came out at 970.65. Further, the “% Activity over baseline” value under setting [2] was found to be 40.01%. For the same compound, the “% Activity relative to Rapamycin” value under setting [3] is reported as 72.09%.

Consider `CCCCC(=O)O[C@H]1CC[C@H]2[C@@H]3CCc4cc(O)ccc4[C@H]3CC[C@]12C` [Estradiol valerate], for which, under setting [1], the “Mean Luminescence” value came out at 924.65. Moreover, the “% Activity over baseline” value under setting [2] amounted to 42.86%. The “% Activity relative to Rapamycin” value under setting [3] is 77.22%.
